Drawing on patent US10208019B2, “GLP-1 receptor agonists and uses thereof” (Pfizer Inc., priority 2016, dated 2019), this text covers EC50 and Emax for 15 compounds.

Where a name gives a salt, the structure may show the parent alone. Bounds are passed on as bounds.

In assay [1] the target is human GLP-1R (Homo sapiens (Human), UniProt P43220, L260F). The experiment in a line: CHO GLP-1R Clone C6—Assay 2: HTRF cAMP cell-based functional agonist assay (low GLP-1R density). The settings on record: for EC50: CHO GLP-1R Clone C6, cAMP HTRF, geometric mean; for Emax: CHO GLP-1R Clone C6, relative to saturating concentration of full agonist GLP-1 (1 μM), arithmetic mean, read-out: Assay 2 Emax (%). (In general: TR-FRET usually uses a lanthanide donor and a delayed reading to cut background.)
Method: GLP-1R-mediated agonist activity was determined with a cell-based functional assay utilizing an HTRF (Homogeneous Time-Resolved Fluorescence) cAMP detection kit (cAMP HI Range Assay Kit; Cis Bio cat #62AM6PEJ) that measures cAMP levels in the cell. The method is a competitive immunoassay between native cAMP produced by the cells and exogenous cAMP labeled with the dye d2. The tracer binding is visualized by a mAb anti-cAMP labeled with Cryptate. The specific signal (i.e. energy transfer) is inversely proportional to the concentration of cAMP in either a standard or an experimental sample.
The human GLP-1R coding sequence (NCBI Reference Sequence NP_002053.3, including naturally-occurring variant Leu260Phe) was subcloned into pcDNA5-FRT-TO and a clonal CHO cell line stably expressing a low receptor density was isolated using the Flp-In™ T-Rex™ System, as described by the manufacturer (ThermoFisher).
Cells were removed from cryopreservation, re-suspended in 40 mL of Dulbecco's Phosphate Buffered Saline (DPBS-Lonza Cat #17-512Q) and centrifuged at 800×g for 5 min at 22° C. The DPBS was aspirated, and the cell pellet was re-suspended in 10 mL of complete growth medium (DMEM:F12 1:1 Mixture with HEPES, L-Gln, 500 mL (DMEM/F12 Lonza Cat #12-719F), 10% heat inactivated fetal bovine serum (Gibco Cat #16140-071), 5 mL of 100× Pen-Strep (Gibco Cat #15140-122), 5 mL of 100× L-Glutamine (Gibco Cat #25030-081), 700 μg/mL Hygromycin (Invitrogen Cat #10687010) and 15 μg/mL Blasticidin (Gibco Cat #R21001). A 1 mL sample of the cell suspension in growth media was counted on a Becton Dickinson ViCell to determine cell viability and cell count per mL. The remaining cell suspension was then adjusted with growth media to deliver 1600 viable cells per well using a Matrix Combi Multidrop reagent dispenser, and the cells were dispensed into a white 384 well tissue culture treated assay plate (Corning 3570). The assay plate was then incubated for 48 h at 37° C. in a humidified environment (95% O2, 5% CO2)
Varying concentrations of each compound to be tested (in DMSO) were diluted in assay buffer [HBSS with Calcium/Magnesium (Lonza/BioWhittaker cat #10-527F)/0.1% BSA (Sigma Aldrich cat #A7409-1L)/20 mM HEPES (Lonza/BioWhittaker cat #17-737E)] containing 100 μM 3-isobutyl-1-methylxanthin (IBMX; Sigma cat #15879). The final DMSO concentration in the compound/assay buffer mixture is 1%.
After 48 h, the growth media was removed from the assay plate wells, and the cells were treated with 20 μL of the serially diluted compound in assay buffer for 30 min at 37° C. in a humidified environment (95% O2, 5% CO2). Following the 30 min incubation, 10 μL of labeled d2 cAMP and 10 μL of anti-cAMP antibody (both diluted 1:20 in cell lysis buffer; as described in the manufacturer's assay protocol) were added to each well of the assay plate. The plates were then incubated at room temperature and after 60 minutes, changes in the HTRF signal were read with an Envision 2104 multi-label plate reader using excitation of 330 nm and emissions of 615 and 665 nm. Raw data were converted to nM cAMP by interpolation from a cAMP standard curve (as described in the manufacturer's assay protocol) and the percent effect was determined relative to a saturating concentration of the full agonist GLP-1 (1 μM) included on each plate. EC50 determinations were made from agonist dose response curves analyzed with a curve fitting program using a 4-parameter logistic dose response equation.

The target of assay [2] is human GLP-1R (Homo sapiens, UniProt P43220, G168S). The experiment in a line: CHO GLP-1R Clone H6—Assay 1: HTRF cAMP cell-based functional agonist assay (high GLP-1R density). As to conditions: for EC50: read-out: Assay 1 EC50, CHO GLP-1R Clone H6, cAMP HTRF, geometric mean; for Emax: read-out: Assay 1 Emax (%), CHO GLP-1R Clone H6, relative to saturating concentration of full agonist GLP-1 (1 μM), arithmetic mean.
Sequence of human GLP-1R (Homo sapiens, UniProt P43220, G168S) (P43220 24-463 G168S limits assumed): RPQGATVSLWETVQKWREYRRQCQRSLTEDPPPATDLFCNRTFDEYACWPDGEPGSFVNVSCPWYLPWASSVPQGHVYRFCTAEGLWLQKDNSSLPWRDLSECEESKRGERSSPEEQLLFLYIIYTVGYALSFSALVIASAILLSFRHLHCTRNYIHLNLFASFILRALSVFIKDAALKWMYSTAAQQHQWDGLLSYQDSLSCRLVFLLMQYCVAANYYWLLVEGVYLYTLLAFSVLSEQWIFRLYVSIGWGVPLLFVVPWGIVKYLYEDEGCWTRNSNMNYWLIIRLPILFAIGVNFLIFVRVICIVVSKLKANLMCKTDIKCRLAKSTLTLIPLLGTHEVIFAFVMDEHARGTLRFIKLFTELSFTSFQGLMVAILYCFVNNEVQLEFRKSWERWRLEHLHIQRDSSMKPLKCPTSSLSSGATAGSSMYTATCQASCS
Method: GLP-1R-mediated agonist activity was determined with a cell-based functional assay utilizing an HTRF (Homogeneous Time-Resolved Fluorescence) cAMP detection kit (cAMP HI Range Assay Kit; CisBio cat #62AM6PEJ) that measures cAMP levels in the cell. The method is a competitive immunoassay between native cAMP produced by the cells and exogenous cAMP labeled with the dye d2. The tracer binding is visualized by a mAb anti-cAMP labeled with Cryptate. The specific signal (i.e. energy transfer) is inversely proportional to the concentration of cAMP in either standard or experimental sample.
The human GLP-1R coding sequence (NCBI Reference Sequence NP_002053.3, including naturally-occurring variant Gly168Ser) was subcloned into pcDNA3 (Invitrogen) and a cell line stably expressing the receptor was isolated (designated Clone H6).
Cells were removed from cryopreservation, re-suspended in 40 mL of Dulbecco's Phosphate Buffered Saline (DPBS-Lonza Cat #17-512Q) and centrifuged at 800×g for 5 min at 22° C. The cell pellet was then re-suspended in 10 mL of growth medium [DMEM/F12 1:1 Mixture with HEPES, L-Gln, 500 mL (DMEM/F12 Lonza Cat #12-719F), 10% heat inactivated fetal bovine serum (Gibco Cat #16140-071), 5 mL of 100× Pen-Strep (Gibco Cat #15140-122), 5 mL of 100× L-Glutamine (Gibco Cat #25030-081) and 500 μg/mL Geneticin (G418) (Invitrogen #10131035)]. A 1 mL sample of the cell suspension in growth media was counted on a Becton Dickinson ViCell to determine cell viability and cell count per mL. The remaining cell suspension was then adjusted with growth media to deliver 2000 viable cells per well using a Matrix Combi Multidrop reagent dispenser, and the cells were dispensed into a white 384 well tissue culture treated assay plate (Corning 3570). The assay plate was then incubated for 48 hours at 37° C. in a humidified environment in 5% carbon dioxide.
Varying concentrations of each compound to be tested (in DMSO) were diluted in assay buffer (HBSS with Calcium/Magnesium (Lonza/BioWhittaker cat #10-527F)/0.1% BSA (Sigma Aldrich cat #A7409-1L)/20 mM HEPES (Lonza/BioWhiftaker cat #17-737E) containing 100 μM 3-isobutyl-1-methylxanthin (IBMX; Sigma cat #15879). The final DMSO concentration is 1%.
After 48 hours, the growth media was removed from the assay plate wells, and the cells were treated with 20 μL of the serially diluted compound in assay buffer for 30 minutes at 37° C. in a humidified environment in 5% carbon dioxide. Following the 30 minute incubation, 10 μL of labeled d2 cAMP and 10 μL of anti-cAMP antibody (both diluted 1:20 in cell lysis buffer; as described in the manufacturer's assay protocol) were added to each well of the assay plate. The plates were then incubated at room temperature and after 60 minutes, changes in the HTRF signal were read with an Envision 2104 multi-label plate reader using excitation of 330 nm and emissions of 615 and 665 nm. Raw data were converted to nM cAMP by interpolation from a cAMP standard curve (as described in the manufacturer's assay protocol) and the percent effect was determined relative to a saturating concentration of the full agonist GLP-17-36 (1 μM) included on each plate. EC50 determinations were made from agonist dose-response curves analyzed with a curve fitting program using a 4-parameter logistic dose response equation.

Sequence of human GLP-1R (Homo sapiens (Human), UniProt P43220, L260F) (P43220 24-463 L260F): as the sequence (P43220 24-463 G168S limits assumed) above, with S145G, L237F counted along it

`COCCn1c(CN2CCC(c3cccc(OCc4ccc(Cl)cc4F)n3)CC2)nc2ncc(C(=O)O)cc21` [Example 2A-02, 2-((4-(6-((4-Chloro-2-fluorobenzyl)oxy)pyridin-2-yl)piperidin-1-yl)methyl)-1-(2-methoxyethyl)-1H-imidazo[4,5-b]pyridine-6-carboxylic acid hydrochloride]: the concentration giving a half-maximal response (EC50) (commonly the concentration needed to bring the measured effect to its halfway point) at human GLP-1R [1] turned out to be 110 nM; on human GLP-1R [2], 7.9 nM. The maximum response (Emax) – broadly, the size of the effect at its maximum, as opposed to the concentration needed – is 89% at human GLP-1R [1] and 95% at human GLP-1R [2].
For `Cn1c(CN2CCC(c3cccc(OCc4ccc(Cl)cc4F)n3)CC2)nc2cnc(C(=O)O)cc21` [Example 2A-03, 2-((4-(6-((4-Chloro-2-fluorobenzyl)oxy)pyridin-2-yl)piperidin-1-yl)methyl)-1-methyl-1H-imidazo[4,5-c]pyridine-6-carboxylic acid] the same measures were 1200 nM, 150 nM, 44% and 74%.
Taken in the same sequence, the figures for `Cn1c(CN2CCC(c3cccc(OCc4ccc(Cl)cc4F)n3)CC2)nc2ncc(C(=O)O)cc21` [Example 2A-04, 2-[(4-{6-[(4-chloro-2-fluorobenzyl)oxy]pyridin-2-yl}piperidin-1-yl)methyl]-1-methyl-1H-imidazo[4,5-b]pyridine-6-carboxylic acid] were 150 nM, 36 nM, 92% and 84%.
Taken in the same sequence, the figures for `O=C(O)c1cc2c(cn1)nc(CN1CCC(c3cccc(OCc4ccc(Cl)cc4F)n3)CC1)n2C[C@@H]1CCO1` [Example 2A-05, 2-[(4-{6-[(4-chloro-2-fluorobenzyl)oxy]pyridin-2-yl}piperidin-1-yl)methyl]-1-[(2S)-oxetan-2-ylmethyl]-1H-imidazo[4,5-c]pyridine-6-carboxylic acid] were 150 nM, 6 nM, 84% and 73%.
With `O=C(O)c1cc2c(cn1)nc(CN1CCC(c3cccc(OCc4ccc(Cl)cc4F)n3)CC1)n2Cc1ncco1` [Example 2A-06, 2-[(4-{6-[(4-chloro-2-fluorobenzyl)oxy]pyridin-2-yl}piperidin-1-yl)methyl]-1-(1,3-oxazol-2-ylmethyl)-1H-imidazo[4,5-c]pyridine-6-carboxylic acid], at human GLP-1R [1], the half-maximal effective concentration (EC50) was 170 nM and the Emax worked out at 85%. At human GLP-1R [2], the 50% effective concentration (EC50) amounted to 9 nM and the Emax was determined as 82%.
Taken in the same sequence, the figures for `COCCn1c(CN2CCC(c3cccc(OCc4ccc(Cl)cc4F)n3)CC2)nc2cnc(C(=O)O)cc21` [Example 2A-07, 2-[(4-{6-[(4-chloro-2-fluorobenzyl)oxy]pyridin-2-yl}piperidin-1-yl)methyl]-1-(2-methoxyethyl)-1H-imidazo[4,5-c]pyridine-6-carboxylic acid] were 1600 nM, 46%, 140 nM and 72%.
Turning to `COCCn1c(CN2CCC(c3cccc(OCc4ccc(Cl)cc4F)n3)CC2)nc2ccc(C(=O)O)c(F)c21` [Example 2A-08, 2-[(4-{6-[(4-chloro-2-fluorobenzyl)oxy]pyridin-2-yl}piperidin-1-yl)methyl]-7-fluoro-1-(2-methoxyethyl)-1H-benzimidazole-6-carboxylic acid], the EC50 at human GLP-1R [1] was 94 nM; at human GLP-1R [2] it was 5.8 nM. The Emax on human GLP-1R [1] is 76%; at human GLP-1R [2], 72%.
For `Cn1c(CN2CCC(c3cccc(OCc4ccc(Cl)cc4F)n3)CC2)nc2cc(F)c(C(=O)O)cc21` [Example 2A-09, 2-[(4-{6-[(4-chloro-2-fluorobenzyl)oxy]pyridin-2-yl}piperidin-1-yl)methyl]-5-fluoro-1-methyl-1H-benzimidazole-6-carboxylic acid] the same measures were 2200 nM, 120 nM, 83% and 76%.
Regarding `COCCn1c(CN2CCC(c3cccc(OCc4ccc(Cl)cc4F)n3)CC2)nc2ncc(C(=O)O)nc21` [Example 2A-10, 2-[(4-{6-[(4-chloro-2-fluorobenzyl)oxy]pyridin-2-yl}piperidin-1-yl)methyl]-1-(2-methoxyethyl)-1H-imidazo[4,5-b]pyrazine-6-carboxylic acid], on human GLP-1R [1], a half-maximal response (EC50) required 680 nM and the Emax was determined as 110%. Besides, on human GLP-1R [2], the EC50 worked out at 43 nM and the maximum response (Emax) came out at 82%.
Regarding `Cn1c(CN2CCC(c3cccc(OCc4ccc(Cl)cc4F)n3)CC2)nc2cc(Cl)c(C(=O)O)cc21` [Example 2A-13, 5-chloro-2-[(4-{6-[(4-chloro-2-fluorobenzyl)oxy]pyridin-2-yl}piperidin-1-yl)methyl]-1-methyl-1H-benzimidazole-6-carboxylic acid], on human GLP-1R [1], the concentration giving a half-maximal response (EC50) was > 15000 nM and the Emax is 100%. For the same compound, at human GLP-1R [2], the EC50 amounted to 770 nM and the maximal effect (Emax) is 78%.
`COCCn1c(CN2CCC(c3cccc(OCc4ccc(C#N)cc4)n3)CC2)nc2cc(F)c(C(=O)O)cc21` [Example 2A-14, 2-[(4-{6-[(4-cyanobenzyl)oxy]pyridin-2-yl}piperidin-1-yl)methyl]-5-fluoro-1-(2-methoxyethyl)-1H-benzimidazole-6-carboxylic acid]: the concentration for a half-maximal effect (EC50) on human GLP-1R [1] was 3000 nM; at human GLP-1R [2], 110 nM. The Emax on human GLP-1R [1] stood at 92%; at human GLP-1R [2] it was 71%.
Consider `COCCn1c(CN2CCC(c3cccc(OCc4ccc(C#N)cc4)n3)CC2)nc2ccc(C(=O)O)c(F)c21` [Example 2A-15, 2-[(4-{6-[(4-cyanobenzyl)oxy]pyridin-2-yl}piperidin-1-yl)methyl]-7-fluoro-1-(2-methoxyethyl)-1H-benzimidazole-6-carboxylic acid], for which, on human GLP-1R [1], it took 280 nM to reach a half-maximal effect (EC50) and the Emax was determined as 91%. Moreover, on human GLP-1R [2], the EC50 was determined as 22 nM and the Emax came out at 87%.
With `COCCn1c(CN2CCC(c3cccc(OCc4ccc(Cl)cc4F)n3)CC2)nc2ccc(C(=O)O)nc21` [Example 2A-17, 2-[(4-{6-[(4-chloro-2-fluorobenzyl)oxy]pyridin-2-yl}piperidin-1-yl)methyl]-3-(2-methoxyethyl)-3H-imidazo[4,5-b]pyridine-5-carboxylic acid], at human GLP-1R [1], a half-maximal response (EC50) required 1200 nM and the Emax is 94%. On human GLP-1R [2], the concentration for a half-maximal effect (EC50) amounted to 24 nM and the maximum response (Emax) was 76%.
For `O=C(O)c1ccc2nc(CN3CCC(c4cccc(OCc5ccc(Cl)cc5F)n4)CC3)n(Cc3ncco3)c2n1` [Example 2A-18, 2-[(4-{6-[(4-chloro-2-fluorobenzyl)oxy]pyridin-2-yl}piperidin-1-yl)methyl]-3-(1,3-oxazol-2-ylmethyl)-3H-imidazo[4,5-b]pyridine-5-carboxylic acid] the same measures were 78 nM, 88%, 6 nM and 80%.
For `N#Cc1ccc(COc2cccc(C3CCN(Cc4nc5ccc(C(=O)O)nc5n4Cc4ncco4)CC3)n2)c(F)c1` [Example 2A-19, 2-[(4-{6-[(4-cyano-2-fluorobenzyl)oxy]pyridin-2-yl}piperidin-1-yl)methyl]-3-(1,3-oxazol-2-ylmethyl)-3H-imidazo[4,5-b]pyridine-5-carboxylic acid] the same measures were 150 nM, 100%, 7.9 nM and 80%.
